Tests used:
[1] = tested on: wildtype Wnt signaling cascade; assay: HEK293 TOP assay (Super TopFlash luciferase reporter, Wnt-3a stimulated); type: cell-based; conditions: Homo sapiens, HEK293, 16 h, HEK293 TOP reporter cells, Wnt3a at EC50, 16 hours
Outline: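 Compound series (50 μM down to 15 nM, 3.16-fold) diluted from DMSO 50-fold into CAFTY buffer, pH 7.4, 2 mM Ca^2+, 0.01% BSA, applied to Wnt-3a-stimulated HEK293 TopFlash and FOP reporter lines in parallel. Cells seeded 10000/well 24 h before; luciferase signal measured.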

TNKS2 = target: T1, TNKS2 (Homo sapiens, UniProt Q9H2K2); assay: TNKS2 Assay B (auto-parsylation, [3H]-NAD+ SPA); type: biochemical; conditions: 6 nM TNKS2, auto-parsylation, over night at room temperature
T1 construct: purchased BPS Bioscience, San Diego, USA 80572 (TNKS2 Histone Ribosylation Assay Kit)
T1 sequence (Q9H2K2 1-1166): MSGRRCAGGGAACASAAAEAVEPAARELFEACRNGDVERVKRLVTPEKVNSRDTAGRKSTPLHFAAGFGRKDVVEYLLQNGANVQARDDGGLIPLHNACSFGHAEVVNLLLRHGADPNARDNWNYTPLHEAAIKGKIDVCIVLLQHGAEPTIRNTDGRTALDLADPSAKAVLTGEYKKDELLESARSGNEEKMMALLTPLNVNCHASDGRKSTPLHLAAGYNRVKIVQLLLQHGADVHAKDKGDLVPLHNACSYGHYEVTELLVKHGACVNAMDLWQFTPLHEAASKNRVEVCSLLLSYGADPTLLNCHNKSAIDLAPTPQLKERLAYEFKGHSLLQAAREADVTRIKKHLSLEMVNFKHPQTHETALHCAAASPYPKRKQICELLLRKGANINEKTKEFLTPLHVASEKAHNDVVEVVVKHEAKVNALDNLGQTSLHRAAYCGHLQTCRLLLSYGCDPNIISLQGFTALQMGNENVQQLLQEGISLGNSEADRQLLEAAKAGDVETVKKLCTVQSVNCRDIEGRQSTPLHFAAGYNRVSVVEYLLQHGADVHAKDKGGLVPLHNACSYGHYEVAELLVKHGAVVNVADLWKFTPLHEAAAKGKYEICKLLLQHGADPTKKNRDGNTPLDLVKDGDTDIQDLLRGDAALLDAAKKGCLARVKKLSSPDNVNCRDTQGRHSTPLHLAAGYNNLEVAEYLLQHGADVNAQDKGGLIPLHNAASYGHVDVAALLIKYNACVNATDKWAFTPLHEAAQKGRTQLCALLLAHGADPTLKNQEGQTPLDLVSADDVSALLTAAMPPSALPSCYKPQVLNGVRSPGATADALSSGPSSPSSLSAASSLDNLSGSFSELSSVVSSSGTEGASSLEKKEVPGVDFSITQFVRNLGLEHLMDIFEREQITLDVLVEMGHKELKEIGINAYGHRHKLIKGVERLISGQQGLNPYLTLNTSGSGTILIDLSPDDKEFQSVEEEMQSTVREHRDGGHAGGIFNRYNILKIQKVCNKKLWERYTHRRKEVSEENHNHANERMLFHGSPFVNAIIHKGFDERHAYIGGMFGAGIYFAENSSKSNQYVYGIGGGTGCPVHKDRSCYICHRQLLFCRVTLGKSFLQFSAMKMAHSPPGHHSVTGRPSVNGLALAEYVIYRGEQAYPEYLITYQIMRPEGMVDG

| SMILES | IC50 [1] [nM] | IC50 (TNKS2) [nM] |
| --- | --- | --- |
| CN(c1ccc(F)cc1Cl)C(=O)[C@H]1CC[C@H](NC(=O)c2cnn3cccnc23)CC1 [Example 155, N-{trans-4-[(2-chloro-4-fluorophenyl)(methyl)carbamoyl]cyclohexyl}pyrazolo[1,5-a]pyrimidine-3-carboxamide] | 130 | 91 |
| CN(c1ccccc1)C(=O)[C@H]1CC[C@H](NC(=O)c2cnn3cccnc23)CC1 [Example 156, N-{trans-4-[methyl(phenyl)carbamoyl]cyclohexyl}pyrazolo[1,5-a]pyrimidine-3-carboxamide] | 190 | 230 |
| CNC(=O)c1nc[nH]c1C(=O)N[C@H]1CC[C@H](C(=O)N(CCO)c2ccc(F)cc2Cl)CC1 [Example 157, N^5-{trans-4-[(2-chloro-4-fluorophenyl)(2-hydroxyethyl)carbamoyl]cyclohexyl}-N^4-methyl-1H-imidazole-4,5-dicarboxamide] | 8300 | 280 |
| O=C(N[C@H]1CC[C@@]2(CCN(c3ccc(F)cc3Cl)C2=O)CC1)c1[nH]cnc1C(=O)N1CC(F)C1 [Example 166, N-[(trans)-2-(2-chloro-4-fluorophenyl)-1-oxo-2-azaspiro[4.5]dec-8-yl]-4-[(3-fluoroazetidin-1-yl)carbonyl]-1H-imidazole-5-carboxamide] | 0.69 | 2.6 |

Results, then the compound that gave them:

| IC50 [1] [nM] | IC50 (TNKS2) [nM] | SMILES |
| --- | --- | --- |
| 13 | 3.4 | CC1CCN(CCNC(=O)c2nc[nH]c2C(=O)N[C@H]2CC[C@@]3(CCN(c4ccc(F)cc4Cl)C3=O)CC2)CC1 [Example 160, N^5-[(trans)-2-(2-chloro-4-fluorophenyl)-1-oxo-2-azaspiro[4.5]dec-8-yl]-N^4-[2-(4-methylpiperidin-1-yl)ethyl]-1H-imidazole-4,5-dicarboxamide] |
| 55 | 1.6 | O=C(NCCN1CCCCC1)c1nc[nH]c1C(=O)N[C@H]1CC[C@@]2(CCN(c3ccc(F)cc3Cl)C2=O)CC1 [Example 161, N^5-[(trans)-2-(2-chloro-4-fluorophenyl)-1-oxo-2-azaspiro[4.5]dec-8-yl]-N^4-[2-(piperidin-1-yl)ethyl]-1H-imidazole-4,5-dicarboxamide] |
| 9.4 | 8.2 | CC(C)NC(=O)c1nc[nH]c1C(=O)N[C@H]1CC[C@@]2(CCN(c3ccc(F)cc3Cl)C2=O)CC1 [Example 162, N^5-[(trans)-2-(2-chloro-4-fluorophenyl)-1-oxo-2-azaspiro[4.5]dec-8-yl]-N^4-isopropyl-1H-imidazole-4,5-dicarboxamide] |
| 2.4 | 5.9 | COCCNC(=O)c1nc[nH]c1C(=O)N[C@H]1CC[C@@]2(CCN(c3ccc(F)cc3Cl)C2=O)CC1 [Example 163, N^5-[(trans)-2-(2-chloro-4-fluorophenyl)-1-oxo-2-azaspiro[4.5]dec-8-yl]-N^4-(2-methoxyethyl)-1H-imidazole-4,5-dicarboxamide] |
| 3.8 | 6.3 | O=C(NC1CC1)c1nc[nH]c1C(=O)N[C@H]1CC[C@@]2(CCN(c3ccc(F)cc3Cl)C2=O)CC1 [Example 165, N^5-[(trans)-2-(2-chloro-4-fluorophenyl)-1-oxo-2-azaspiro[4.5]dec-8-yl]-N^4-cyclopropyl-1H-imidazole-4,5-dicarboxamide] |
